For the test, the system named is CD2F1 mice, L1210 leukemia ip, survival T/C. The test can be described thus: NCI In Vivo Anticancer Drug Screen. Data for tumor model L1210 Leukemia (intraperitoneal) in CD2F1 (CDF1) mice. As to conditions: endpoint: mean survival time, higher = longer survival. In outline:
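Read-out first: treated-group measurement over vehicle-control measurement, expressed as a ratio. Animals bore a transplanted tumor line and were dosed with compound or vehicle.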

The mark [1] stands for this setting: dose: 25.0 mg/kg/injection, schedule: Q04DX003 (ip), vehicle: saline.
Where [2] appears, read: dose: 50.0 mg/kg/injection, schedule: Q04DX003 (ip), vehicle: saline.
[3] abbreviates: dose: 100.0 mg/kg/injection, schedule: Q01DX009 (ip), vehicle: saline with Tween-80.
The mark [4] stands for this setting: dose: 200.0 mg/kg/injection, schedule: Q01DX009 (ip), vehicle: saline with Tween-80.
Setting [5] is: dose: 400.0 mg/kg/injection, schedule: Q01DX009 (ip), vehicle: saline with Tween-80.
[6] abbreviates: dose: 100.0 mg/kg/injection, schedule: Q04DX003 (ip), vehicle: saline with Tween-80.
Where [7] appears, read: dose: 200.0 mg/kg/injection, schedule: Q04DX003 (ip), vehicle: saline with Tween-80.
The mark [8] stands for this setting: dose: 50.0 mg/kg/injection, schedule: Q01DX009 (ip), vehicle: saline with Tween-80.
Setting [9] is: dose: 100.0 mg/kg/injection, schedule: Q01DX001 (ip), vehicle: saline.
[10] abbreviates: dose: 200.0 mg/kg/injection, schedule: Q01DX001 (ip), vehicle: saline.
Where [11] appears, read: dose: 400.0 mg/kg/injection, schedule: Q01DX001 (ip), vehicle: saline.
The mark [12] stands for this setting: dose: 100.0 mg/kg/injection, schedule: Q04DX003 (ip), vehicle: saline.
The mark [13] stands for this setting: dose: 100.0 mg/kg/injection, schedule: Q01DX001 (ip), vehicle: saline with Tween-80.
Where [14] appears, read: dose: 200.0 mg/kg/injection, schedule: Q01DX001 (ip), vehicle: saline with Tween-80.
The mark [15] stands for this setting: dose: 400.0 mg/kg/injection, schedule: Q01DX001 (ip), vehicle: saline with Tween-80.

SMILES strings stand for the structures. “And” between values parts separate entries of the source, which are not always exact repeats. Identical values can stand only once. Inconclusive results and toxic doses are left out.

Turning to `[Cl][Pt]([Cl])([Cl])[Cl]`, the T/C reads like this: (dose: 3.13 mg/kg/injection, schedule: Q01DX009 (ip), vehicle: saline) 100 % of control; (dose: 3.13 mg/kg/injection, schedule: Q01DX009 (ip), vehicle: suspension in saline) 101 % of control; (dose: 6.25 mg/kg/injection, schedule: Q01DX009 (ip), vehicle: saline) 113 % of control; (dose: 6.25 mg/kg/injection, schedule: Q01DX009 (ip), vehicle: suspension in saline) 107 % of control; (dose: 12.5 mg/kg/injection, schedule: Q01DX009 (ip), vehicle: saline) 121 % of control; (dose: 12.5 mg/kg/injection, schedule: Q01DX009 (ip), vehicle: suspension in saline) 121 % of control. The T/C was 113 % of control and 102 % of control (dose: 25.0 mg/kg/injection, schedule: Q01DX009 (ip), vehicle: saline); 124 % of control (dose: 25.0 mg/kg/injection, schedule: Q01DX009 (ip), vehicle: suspension in saline); 108 % of control and 107 % of control under setting [1]; 97 % of control and 105 % of control under setting [2].

For `Cc1cccc(C)c1NC(=S)NNC(=O)NNC(=S)Nc1c(C)cccc1C`, the T/C was 95 % of control under setting [3], 95 % of control under setting [4] and 105 % of control under setting [5].

With `COc1ccc([N+](=O)[O-])cc1NC(=O)Nc1ccccc1C`, the T/C is 92 % of control (dose: 100.0 mg/kg/injection, schedule: Q04DX002 (ip), vehicle: saline with Tween-80); 88 % of control (dose: 200.0 mg/kg/injection, schedule: Q04DX002 (ip), vehicle: saline with Tween-80); 95 % of control (dose: 400.0 mg/kg/injection, schedule: Q04DX002 (ip), vehicle: saline with Tween-80).

For the molecule `Cc1cc(C)c(C)c(C(O)(C(=O)O)c2ccccc2)c1` (centres undefined), the T/C is, setting by setting: under setting [3], 100 % of control; under setting [6], 97 % of control; under setting [4], 88 % of control; under setting [7], 101 % of control; under setting [5], 96 % of control; (dose: 400.0 mg/kg/injection, schedule: Q04DX003 (ip), vehicle: saline with Tween-80) 92 % of control.

`O=P(CCC(O)c1ccccc1)(c1ccccc1)c1ccccc1` (centres undefined): the T/C was 96 % of control under setting [8], 92 % of control under setting [3], 97 % of control under setting [6] and 87 % of control under setting [7].

With `O=C1OC(C(=O)O)Cc2ccccc21` (centres undefined), the T/C runs as follows: (dose: 50.0 mg/kg/injection, schedule: Q01DX001 (ip), vehicle: saline) 102 % of control; under setting [9], 100 % of control; under setting [10], 110 % of control; under setting [11], 103 % of control.

In the case of `Nc1ccc(Cl)cc1C(=O)c1ccc[nH]1`, the T/C reads like this: under setting [9], 101 % of control; under setting [12], 94 % of control; under setting [10], 98 % of control; (dose: 200.0 mg/kg/injection, schedule: Q04DX003 (ip), vehicle: saline) 94 % of control; under setting [11], 93 % of control; (dose: 400.0 mg/kg/injection, schedule: Q04DX003 (ip), vehicle: saline) 94 % of control.

As for `O=C(N/N=C\c1ccc(F)cc1)N/N=C/c1ccc(F)cc1`, the T/C is, setting by setting: (dose: 12.5 mg/kg/injection, schedule: Q01DX009 (ip), vehicle: saline with Tween-80) 93 % of control; (dose: 25.0 mg/kg/injection, schedule: Q01DX009 (ip), vehicle: saline with Tween-80) 91 % of control; under setting [8], 91 % of control; under setting [4], 90 % of control; under setting [5], 90 % of control.

With `CCCCCCCCC(CCCCCCCC)CCCC1CCCC1`, the T/C was 95 % of control under setting [13], 110 % of control under setting [14] and 103 % of control under setting [15].

On to `CC(=O)Nc1ccn(C2OC(CO)C(O)C2O)c(=O)n1` (centres undefined), for which the T/C is, setting by setting: (dose: 12.5 mg/kg/injection, schedule: Q03HX024 (ip), vehicle: saline) 196 % of control; (dose: 25.0 mg/kg/injection, schedule: Q03HX024 (ip), vehicle: saline) 274 % of control; (dose: 37.5 mg/kg/injection, schedule: Q01DX008 (ip), vehicle: saline) 150 % of control; (dose: 50.0 mg/kg/injection, schedule: Q03HX024 (ip), vehicle: saline) 257 % of control; under setting [2], 113 % of control; (dose: 75.0 mg/kg/injection, schedule: Q01DX008 (ip), vehicle: saline) 160 % of control. The T/C was 117 % of control under setting [12]; 106 % of control (dose: 150.0 mg/kg/injection, schedule: Q01DX001 (ip), vehicle: saline); 174 % of control (dose: 150.0 mg/kg/injection, schedule: Q01DX008 (ip), vehicle: saline); 107 % of control (dose: 300.0 mg/kg/injection, schedule: Q01DX001 (ip), vehicle: saline); 107 % of control (dose: 600.0 mg/kg/injection, schedule: Q01DX001 (ip), vehicle: saline); 104 % of control (dose: 1200.0 mg/kg/injection, schedule: Q01DX001 (ip), vehicle: saline).

In the case of `CC(=O)c1ccc2c3c(cccc13)CC2`, the T/C is 94 % of control under setting [13], 96 % of control under setting [14] and 110 % of control under setting [15].

Turning to `CC[NH-].[Cl][Pt+2][Cl].[NH-]C1CC1`, where the note is “dose: 3.13 mg/kg/injection, schedule: Q04DX003 (ip), vehicle: distilled water + Tween-80”, the T/C is 116 % of control.

`O=C1c2ccccc2C(=O)N1CCBr`: the T/C was 102 % of control under setting [13], 109 % of control under setting [14] and 111 % of control under setting [15].

In the case of `CSC(=O)C(=O)SC`, the T/C (dose: 50.0 mg/kg/injection, schedule: Q01DX001 (ip), vehicle: saline with Tween-80) is 100 % of control and the T/C under setting [13] was 108 % of control.

For the molecule `Cc1ccc2c(c1)C(C(F)(F)F)(C(F)(F)F)OC(C(F)(F)F)(C(F)(F)F)N2`, the T/C reads like this: under setting [13], 104 % of control; under setting [3], 95 % of control; under setting [14], 103 % of control; under setting [4], 102 % of control; under setting [15], 95 % of control.

On to `O=C1C=C(SCCO)C(=O)c2ccccc21`, for which the T/C is 91 % of control (dose: 0.63 mg/kg/injection, schedule: Q01DX009 (ip), vehicle: saline sonified); 94 % of control (dose: 1.25 mg/kg/injection, schedule: Q01DX009 (ip), vehicle: saline sonified); 92 % of control (dose: 1.25 mg/kg/injection, schedule: Q04DX003 (ip), vehicle: saline with Tween-80); 105 % of control (dose: 2.5 mg/kg/injection, schedule: Q01DX009 (ip), vehicle: saline sonified); 90 % of control (dose: 2.5 mg/kg/injection, schedule: Q04DX003 (ip), vehicle: saline with Tween-80).

Regarding `CCOC(=O)/C=C\C(=O)O.[Mn]`, the T/C under setting [1] was 102 % of control; the T/C under setting [2] was 104 % of control; the T/C (dose: 100.0 mg/kg/injection, schedule: Q04DX002 (ip), vehicle: saline) is 98 % of control; the T/C under setting [12] was 112 % of control; the T/C under setting [10] was 98 % of control; the T/C (dose: 200.0 mg/kg/injection, schedule: Q04DX002 (ip), vehicle: saline) is 97 % of control. Besides, the T/C (dose: 300.0 mg/kg/injection, schedule: Q04DX002 (ip), vehicle: saline) was 116 % of control.

For `CCOC(=S)SCC(=O)O`, the T/C reads like this: under setting [13], 92 % of control; under setting [14], 96 % of control.

Values taken from PubChem BioAssay AID256 (DTP/NCI, 2004).
